Source: patent US8193200B2, “Antagonists of A2B adenosine receptors for treatment of inflammatory bowel disease” (University of Virginia Patent Foundation, priority 2007, dated 2012)

Assays:
[1] = system: myeloperoxidase (MPO) activity, neutrophil infiltration into colon; assay: Myeloperoxidase assay in colon, DSS colitis; assay type: in vivo, mouse; conditions: DSS 3% 6 days, ATL-801 10 mg/kg in diet
Procedure: Neutrophil infiltration into colon was quantified by measuring myeloperoxidase (MPO) activity as described previously. One unit of MPO activity was defined as the amount that degraded 1 μmol of […] per minute at 25° C. The results were expressed as absorbance per μg of protein.

[2] = system: colonic crypt epithelial cells; assay: ki67 proliferation and TUNEL apoptosis staining, IL-10-/- model; assay type: in vivo, mouse; conditions: IL-10-/- mice, piroxicam+ATL-801
Procedure: (§1) Apoptosis: Apoptotic cells were determined in colonic crypts of the mice that received ATL-801. Apoptotic cells were identified by fluorescent double staining using caspase-3 and terminal deoxyuridine nick-end labeling (TUNEL) as a secondary method to detect apoptosis. After deparaffinization and hydration, paraffin sections of colon were retrieved for antigens in a pressure cooker with sodium citrate (pH 6.0, 10 mM) for 10 min. After cooling, the sections were quenched in 3% H2O2 in methanol and then blocked with normal goat serum. Caspase-3 was detected with rabbit anti-cleaved-caspase-3 IgG overnight at 4° C. followed by a labeled streptavidin-biotin (LSAB) staining method consisting of successive application of secondary antibody-streptavidin, biotin-horseradish peroxidase, and cyanine-3 tyramide. TUNEL immunohistochemistry was performed using the in situ cell death detection kit, fluorescein, as described by the manufacturer (Roche Applied Science, Indianapolis, Ind.). For IL-10 model, frozen sections were used to stain cleaved caspase 3 and TUNEL. Nuclei were attained by Hoechst to count total crypt cell number. The apoptotic index for both morphologically defined apoptotic cells and fluorescent staining with caspase-3 was calculated as the number of apoptotic cells per crypt. […]

[3] = system: colonic crypt epithelial cells; assay: ki67 proliferation and caspase-3/TUNEL apoptosis staining of colonic crypts, DSS colitis; assay type: in vivo, mouse
Procedure: as §1

A2b receptor [4] = molecular target: T1, A2b receptor (Homo sapiens, UniProt P29275); assay: cAMP measurement in adenosine-stimulated T84 cells; assay type: cell-based; conditions: T84 monolayers, adenosine 100 μM, ATL-801 100 μM; unstimulated 1.7±0.05, adenosine alone 4.7±0.66
T1 construct: endogenous in cells; host or cells: T84 cells
T1 sequence (P29275 1-332): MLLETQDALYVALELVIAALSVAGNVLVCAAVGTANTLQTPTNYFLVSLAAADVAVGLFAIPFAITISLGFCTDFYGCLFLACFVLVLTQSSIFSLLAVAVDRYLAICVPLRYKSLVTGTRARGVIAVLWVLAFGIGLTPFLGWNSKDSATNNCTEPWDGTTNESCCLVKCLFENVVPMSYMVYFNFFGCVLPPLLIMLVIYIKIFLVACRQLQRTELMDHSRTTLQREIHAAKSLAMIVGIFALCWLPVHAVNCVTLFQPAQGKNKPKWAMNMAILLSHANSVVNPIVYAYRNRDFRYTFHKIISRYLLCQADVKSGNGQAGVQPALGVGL
Procedure: T84 cells were stimulated with adenosine (100 μM) or forskolin (10 μM) for 7 min, with or without ATL-801 (100 μM). Total cell lysates were processed in the presence of IBMX (phosphodiesterase inhibitor). cAMP levels were measured in whole cell lysates using a competitive cAMP immunoassay kit (Applied Biosystems, Bedford, Mass.) according to the manufacturer's instructions. Luminescence was read with a Luminoscan Ascent plate reader (Thermo Labsystems, Needham Heights, Mass.).

T84 cells = assay: Flagellin-induced IL-8 secretion in T84 cells (ELISA); assay type: cell-based
A2b receptor [5] = molecular target: T2, A2b receptor (Mus musculus, UniProt Q60614); assay: Ussing chamber Isc (chloride secretion) in murine colonic mucosal stripping; conditions: mouse colonic mucosa
T2 construct: Murine colonic mucosal stripping from the distal colon was mounted on Ussing chamber; from tissue; host or cells: mouse distal colon mucosa, stripped of external muscle
T2 sequence (Q60614 1-332): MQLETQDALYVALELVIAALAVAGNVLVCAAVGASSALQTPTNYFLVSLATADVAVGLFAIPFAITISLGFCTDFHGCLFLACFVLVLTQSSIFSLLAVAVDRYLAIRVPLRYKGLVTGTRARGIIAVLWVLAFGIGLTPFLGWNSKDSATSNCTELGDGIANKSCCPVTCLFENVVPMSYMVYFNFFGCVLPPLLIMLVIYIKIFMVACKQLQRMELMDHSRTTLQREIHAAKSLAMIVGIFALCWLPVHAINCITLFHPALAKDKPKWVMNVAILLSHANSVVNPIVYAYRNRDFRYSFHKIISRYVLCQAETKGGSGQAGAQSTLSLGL
Procedure: Electrophysiologic studies were performed as described previously Mice were euthanized by CO2/hypothermia. The colon was removed and opened along the mesenteric border. The colon was then stripped of its external muscle by blunt dissection. A of mucosa from distal colon was used for Using chamber studies. After a sustained baseline Isc, mucosal layers were stimulated with adenosine (100 μM) and forskolin (FSK 10 μM). Antagonist was added to both bathing solutions before stimulating with adenosine.

With CCCn1c(=O)n(C2CC2)c(=O)c2[nH]c(-c3ccc(N(CC)C(=O)c4cccnc4)nc3)nc21 [ATL-801] the “MPO activity, DSS alone relative to antagonist and DSS” value [1] was 5 fold, the “TUNEL positive cells out of total (around 500) number of cells counted in each crypt” value ([2]; control 4.7±1.5, piroxicam 4.3±2.3) was 10±1.0 and the “proliferation index, ki67 positive staining” value ([2]; control 8.0±0.7, piroxicam alone 28.8±2.8) was 18.5±1.4. For the same molecule, the “proliferation index, ki67 positive cells” value ([3]; DSS+ATL, average positive cells per crypt, control 18.67±1.62, DSS 5.95±0.31) was 15.13±0.44, the “TUNEL positive cells out of total number of cells counted in each crypt” value ([3]; DSS+ATL-801, DSS 16.3±2.3) was 3.7±0.7 and the “adenosine mediated cAMP levels, adenosine+ATL-801” value (A2b receptor [4]) was 0.2±0.06 pmoles/10^6 cells. The “inhibition of flagellin-induced IL-8 secretion” value (T84 cells; ATL-801 100 μM 30 min, then flagellin 100 ng/ml 5 hours) was 60%, the IL-8 in media, Flagellin+ATL-801 (T84 cells; ATL-801 100 μM, flagellin 100 ng/ml 5 h, control 206±18.5, flagellin 1126) was 769 ± 13.6 pg/mL and the IL-8 in media, ATL-801 alone (T84 cells; ATL-801 100 μM, no flagellin, control 206±18.5) was 101 ± 34.6 pg/mL. The “ΔIsc, ATL-801+Adenosine” value (A2b receptor [5]; ATL-801 100 μM before adenosine 100 μM, adenosine alone 7.9 μA) was 1.9 μA and the “ΔIsc, ATL-801+FSK” value (A2b receptor [5]; ATL-801 100 μM, forskolin 10 μM) was 10 μA.
